≈ marks a conversion by molar mass, not a printed value.
Columns and labels:
Type in all cases: functional
Lipid bilayer [1] = assay: Induction of membrane lysis in Staphylococcus aureus UL12 lipid vesicles assessed as calcein release at 93.73 uM by spectrofluorometric analysis
Lipid bilayer [2] = assay: Induction of membrane lysis in Staphylococcus aureus UL12 lipid vesicles assessed as calcein release at 187.5 uM by spectrofluorometric analysis
Lipid bilayer [3] = assay: Induction of membrane lysis in Staphylococcus aureus UL12 lipid vesicles assessed as calcein release at 375 uM by spectrofluorometric analysis
Lipid bilayer [4] = assay: Induction of membrane lysis in Staphylococcus aureus UL12 lipid vesicles assessed as calcein release at 750 uM by spectrofluorometric analysis
Lipid bilayer [5] = assay: Induction of membrane lysis in Staphylococcus aureus UL12 lipid vesicles assessed as calcein release at 1500 uM by spectrofluorometric analysis
Lipid bilayer [6] = assay: Induction of membrane lysis in Staphylococcus aureus UL12 lipid vesicles assessed as calcein release at 3000 uM by spectrofluorometric analysis
Lipid bilayer [7] = assay: Induction of membrane lysis in Escherichia coli W3110 lipid vesicles assessed as calcein release at 93.73 uM by spectrofluorometric analysis
Lipid bilayer [8] = assay: Induction of membrane lysis in Escherichia coli W3110 lipid vesicles assessed as calcein release at 187.5 uM by spectrofluorometric analysis
Lipid bilayer [9] = assay: Induction of membrane lysis in Escherichia coli W3110 lipid vesicles assessed as calcein release at 375 uM by spectrofluorometric analysis
Lipid bilayer [10] = assay: Induction of membrane lysis in Escherichia coli W3110 lipid vesicles assessed as calcein release at 750 uM by spectrofluorometric analysis
Lipid bilayer [11] = assay: Induction of membrane lysis in Escherichia coli W3110 lipid vesicles assessed as calcein release at 1500 uM by spectrofluorometric analysis
Lipid bilayer [12] = assay: Induction of membrane lysis in Escherichia coli W3110 lipid vesicles assessed as calcein release at 3000 uM by spectrofluorometric analysis
Staphylococcus aureus [13] = assay: Antibacterial activity against Staphylococcus aureus UL12
Escherichia coli [14] = assay: Antibacterial activity against Escherichia coli W3110
Staphylococcus aureus [15] = assay: Membrane permeabilisation in Staphylococcus aureus UL12 assessed as NPN uptake at 2mM incubated for 1 hr by spectrofluorometric analysis
Escherichia coli [16] = assay: Membrane permeabilisation in Escherichia coli W3110 assessed as NPN uptake at 2mM incubated for 1 hr by spectrofluorometric analysis
Staphylococcus aureus [17] = assay: Membrane permeabilisation in Staphylococcus aureus UL12 assessed as NPN uptake at 2mM incubated overnight by spectrofluorometric analysis
Escherichia coli [18] = assay: Membrane permeabilisation in Escherichia coli W3110 assessed as NPN uptake at 2mM incubated overnight by spectrofluorometric analysis

Row | Structure (SMILES) | Activity (Lipid bilayer [1]) | Activity (Lipid bilayer [2]) | Activity (Lipid bilayer [3]) | Activity (Lipid bilayer [4]) | Activity (Lipid bilayer [5]) | Activity (Lipid bilayer [6]) | Activity (Lipid bilayer [7]) | Activity (Lipid bilayer [8]) | Activity (Lipid bilayer [9]) | Activity (Lipid bilayer [10]) | Activity (Lipid bilayer [11]) | Activity (Lipid bilayer [12]) | MIC (Staphylococcus aureus [13]) | MIC (Escherichia coli [14]) | Activity (Staphylococcus aureus [15]) | Activity (Escherichia coli [16]) | Activity (Staphylococcus aureus [17]) | Activity (Escherichia coli [18])
1 | Nc1cccc(NC(=O)Nc2ccccc2)c1 | 4.58% | 8.34% | 10.1% | 12.7% | 13.8% | 15.5% | 0.15% | 0.95% | 1.24% | 1.73% | 1.78% | 2.17% | 2500 µM (≈ 568 µg/mL) | > 3000 µM | 38.91% | 33.93% | 19.29% | 16.34%
2 | CN(C(=O)N(C)c1cccc(NC(=O)CN)c1)c1ccccc1 | 4.45% | 10% | 11.8% | 13.2% | 15.3% | 17.8% | 8.45% | 27.2% | 29.3% | 30% | 31% | 35.5% | 2500 µM (≈ 781 µg/mL) | 2000 µM (≈ 625 µg/mL) | 40.6% | 42.47% | 36.81% | 52.87%
3 | NCC(=O)Nc1cccc(NC(=O)Nc2ccccc2)c1 | 6.91% | 11.2% | 17.8% | 27.2% | 31.2% | 44.1% | 1.1% | 6.06% | 9.17% | 16.6% | 23.5% | 29.2% | 1500 µM (≈ 426 µg/mL) | 2000 µM (≈ 569 µg/mL) | 69.56% | 47.09% | 69.56% | 50.93%
4 | CN(C(=O)N(C)c1cccc(N)c1)c1ccccc1 | 4.45% | 7.13% | 12% | 15.3% | 21.2% | 27% | 2.3% | 5.72% | 6.75% | 7.44% | 8.03% | 9.65% | 2000 µM (≈ 511 µg/mL) | > 3000 µM | 46.26% | 40.18% | 53.57% | 48.79%
5 | CN(C(=O)N(C)c1cccc(NC(=O)c2ccncc2)c1)c1ccccc1 | 40% | 48.2% | 49.6% | 51.5% | 53.1% | 54.6% | 24.1% | 24.8% | 26.3% | 29.1% | 33.6% | 35.3% | 1000 µM (≈ 360 µg/mL) | 2000 µM (≈ 721 µg/mL) | 50.59% | 49.57% | 57.33% | 52.34%
6 | CN(C(=O)N(C)c1ccccc1)c1ccccc1 | 2.59% | 5.71% | 12.8% | 14.2% | 15.1% | 24.1% | 0.82% | 2.05% | 4.25% | 6.44% | 7.28% | 9.02% | 2500 µM (≈ 601 µg/mL) | > 3000 µM | 43.82% | 40.75% | 44.34% | 38.67%
7 | O=C(Nc1ccccc1)Nc1ccccc1 [DIPHENYLUREA] | 7.18% | 9.2% | 13.8% | 15.3% | 18.3% | 25.5% | 3.17% | 6.27% | 6.47% | 8.53% | 12% | 14.8% | 2000 µM (≈ 425 µg/mL) | > 3000 µM | 46.01% | 45.29% | 49.4% | 30.02%

From ChEMBL document CHEMBL3826887, “Functional foldamers that target bacterial membranes: The effect of charge, amphiphilicity and conformation” (2016)
